Measurements from patent US12389907B2, “Compounds with nematicidal activity to pinewood nematode Bursaphelenchus xylophilus” (KOREA ADVANCED INSTITUTE OF SCIENCE AND TECHNOLOGY, priority 2023, dated 2025).

System: pinewood nematode (Bursaphelenchus xylophilus)
Assay: Nematode screening: mortality of pinewood nematode in 96-well plate, propidium iodide staining
Format: cell-based
Details: compound dissolved in polar solvent DMSO, nematode treated with the solution
Method: Nematode Screening Method and Test Results
(1) A pinewood nematode sample was prepared so that 130 to 150 nematodes were present per 40 μL.
(2) The pinewood nematode sample was dispensed into a 96-well plate by 40 μL. Triplicates were prepared for each sample.
(3) Each compound was dispensed into each well containing the pinewood nematode sample. The tested compounds were (±)-orthosporin and 6,8-dihydroxy-3-methylisocoumarin, and each compound was dissolved in 1% DMSO solvent at a concentration of 20 μM. The chemical formulas of the compounds are illustrated in FIG. 1.
(4) After 120 hours, 20 μL of 50 μM propidium iodide was dispensed into each well containing the sample, and then shaking incubation was performed at RT for 15 minutes.
(5) The mortality rate was evaluated by counting only dead pinewood nematodes stained red in the total number of nematodes using a fluorescence microscope.

Row | SMILES | effect of killing the nematode
1 | CC(O)Cc1cc2cc(O)cc(O)c2c(=O)o1 (racemic) [Chemical Formula 3, 6,8-dihydroxy-3-(2-hydroxypropyl)-1H-isochromen-1-one] | have the effect of killing the nematode
2 | Cc1cc2cc(O)cc(O)c2c(=O)o1 [Chemical Formula 2, 6,8-dihydroxy-3-methyl-1H-isochromen-1-one] | have the effect of killing the nematode
